Data: paper PMC5218480 (PLoS ONE, 2017)

Tested on: MV-4-11 cells
Assay: Gene expression microarray analysis (Affymetrix PrimeView) and GSEA
Type: cell-based, human
Set-up: RFU PODN (11730768_x_at) / Fold change /veh PODN (11730768_x_at) / RFU LINC00158 (11744669_a_at) / Fold change /veh LINC00158 (11744669_a_at) / RFU DUSP10 (11751237_a_at) / Fold change /veh DUSP10 (11751237_a_at) / RFU ID3 (11757404_x_at) / Fold change /veh ID3 (11757404_x_at) / RFU PLEKHG5 (11737974_s_at) / Fold change /veh PLEKHG5 (11737974_s_at) / RFU LRRC4B (11730491_at) / Fold change /veh LRRC4B (11730491_at) / RFU GIMAP4 (11747438_a_at) / Fold change /veh GIMAP4 (11747438_a_at) / RFU KRT8 (11758183_x_at) / Fold change /veh KRT8 (11758183_x_at) / RFU CNN1 (11734310_a_at) / Fold change /veh CNN1 (11734310_a_at) / RFU VPS37D (11726825_at) / Fold change /veh VPS37D (11726825_at) / RFU C10orf10 (11716522_x_at) / Fold change /veh C10orf10 (11716522_x_at) / RFU KIR2DL2 /// KIR2DL4 /// KIR2DL5A /// KIR2DL5B /// KIR2DS1 /// KIR2DS2 /// KIR2DS3 /// KIR2DS4 /// KIR3DL3 /// KIR3DL3 /// KIR3DS1 (11738374_at) / Fold change /veh KIR2DL2 /// KIR2DL4 /// KIR2DL5A /// KIR2DL5B /// KIR2DS1 /// KIR2DS2 /// KIR2DS3 /// KIR2DS4 /// KIR3DL3 /// KIR3DL3 /// KIR3DS1 (11738374_at) / RFU C1QL1 (11718748_at) / Fold change /veh C1QL1 (11718748_at) / RFU TMPRSS4 (11747572_a_at) / Fold change /veh TMPRSS4 (11747572_a_at) / RFU HAMP (11756126_x_at) / Fold change /veh HAMP (11756126_x_at) / RFU RNFT2 (11725882_a_at) / Fold change /veh RNFT2 (11725882_a_at) / RFU NR4A2 (11747474_a_at) / Fold change /veh NR4A2 (11747474_a_at) / RFU ABCC12 (11746883_a_at) / Fold change /veh ABCC12 (11746883_a_at) / RFU TMEM136 (11760407_x_at) / Fold change /veh TMEM136 (11760407_x_at) / RFU CLDN22 /// WWC2 (11732394_at) / Fold change /veh CLDN22 /// WWC2 (11732394_at) / RFU HLA-DPB1 (11760878_x_at) / Fold change /veh HLA-DPB1 (11760878_x_at) / RFU SPINT1 (11716480_a_at) / Fold change /veh SPINT1 (11716480_a_at) / RFU GAP43 (11754022_s_at) / Fold change /veh GAP43 (11754022_s_at) / RFU A4GNT (11735810_at) / Fold change /veh A4GNT (11735810_at) / RFU PRB3 (11715151_x_at) / Fold change /veh PRB3 (11715151_x_at) / RFU TUBB4B (11761932_at) / Fold change /veh TUBB4B (11761932_at) / RFU CAPN14 (11732068_a_at) / Fold change /veh CAPN14 (11732068_a_at) / RFU TMCC2 (11721928_a_at) / Fold change /veh TMCC2 (11721928_a_at) / RFU IRGQ (11745062_a_at) / Fold change /veh IRGQ (11745062_a_at) / RFU FAM174B (11720279_a_at) / Fold change /veh FAM174B (11720279_a_at) / RFU TMPRSS4 (11748680_a_at) / Fold change /veh TMPRSS4 (11748680_a_at) / RFU FAM212B (11763350_a_at) / Fold change /veh FAM212B (11763350_a_at) / RFU PLEKHG5 (11743358_a_at) / Fold change /veh PLEKHG5 (11743358_a_at) / RFU ZSCAN30 (11745921_a_at) / Fold change /veh ZSCAN30 (11745921_a_at) / RFU CMKLR1 (11741424_a_at) / Fold change /veh CMKLR1 (11741424_a_at) / RFU LOC101060620 /// MAPK8IP1 (11723275_at) / Fold change /veh LOC101060620 /// MAPK8IP1 (11723275_at) / RFU SPTSSB (11747773_x_at) / Fold change /veh SPTSSB (11747773_x_at) / RFU PRSS12 (11739890_at) / Fold change /veh PRSS12 (11739890_at) / RFU BIN1 (11741810_x_at) / Fold change /veh BIN1 (11741810_x_at) / RFU WNT11 (11732464_a_at) / Fold change /veh WNT11 (11732464_a_at) / RFU C10orf10 (11716521_a_at) / Fold change /veh C10orf10 (11716521_a_at) / RFU C5orf56 (11738089_at) / Fold change /veh C5orf56 (11738089_at) / RFU CYB561 (11721691_x_at) / Fold change /veh CYB561 (11721691_x_at) / RFU ANKRD19P (11752326_a_at) / Fold change /veh ANKRD19P (11752326_a_at) / RFU OR2T12 /// OR2T33 /// OR2T8 (11738714_s_at) / Fold change /veh OR2T12 /// OR2T33 /// OR2T8 (11738714_s_at) / RFU VCAN (11748164_a_at) / Fold change /veh VCAN (11748164_a_at) / RFU JSRP1 (11732532_at) / Fold change /veh JSRP1 (11732532_at) / RFU KRTAP10-11 (11738290_x_at) / Fold change /veh KRTAP10-11 (11738290_x_at) / RFU MYO3A (11730013_a_at) / Fold change /veh MYO3A (11730013_a_at) / RFU EBF3 (11725865_a_at) / Fold change /veh EBF3 (11725865_a_at) / RFU CAMK2N1 (11719241_x_at) / Fold change /veh CAMK2N1 (11719241_x_at) / RFU C5orf56 (11738088_a_at) / Fold change /veh C5orf56 (11738088_a_at) / RFU OLFML3 (11715873_a_at) / Fold change /veh OLFML3 (11715873_a_at) / RFU LOC100653217 /// NTM (11731650_a_at) / Fold change /veh LOC100653217 /// NTM (11731650_a_at) / RFU MAPK11 (11762145_a_at) / Fold change /veh MAPK11 (11762145_a_at) / RFU FIZ1 (11724087_x_at) / Fold change /veh FIZ1 (11724087_x_at) / RFU OASL (11726364_x_at) / Fold change /veh OASL (11726364_x_at) / RFU SOX15 (11748057_x_at) / Fold change /veh SOX15 (11748057_x_at) / RFU CD79A (11719716_a_at) / Fold change /veh CD79A (11719716_a_at) / RFU HIST1H1D (11736915_at) / Fold change /veh HIST1H1D (11736915_at) / RFU CASKIN2 (11723855_a_at) / Fold change /veh CASKIN2 (11723855_a_at) / RFU LOC730098 (11760151_x_at) / Fold change /veh LOC730098 (11760151_x_at) / RFU OR4N2 (11742367_at) / Fold change /veh OR4N2 (11742367_at) / RFU PRRT2 (11749266_a_at) / Fold change /veh PRRT2 (11749266_a_at) / RFU SNX32 (11753110_a_at) / Fold change /veh SNX32 (11753110_a_at) / RFU CDHR5 (11726645_a_at) / Fold change /veh CDHR5 (11726645_a_at) / RFU RCAN1 (11760418_a_at) / Fold change /veh RCAN1 (11760418_a_at) / RFU FAM167A (11723789_a_at) / Fold change /veh FAM167A (11723789_a_at) / RFU FAM26E (11764081_at) / Fold change /veh FAM26E (11764081_at) / RFU ISYNA1 (11749810_s_at) / Fold change /veh ISYNA1 (11749810_s_at) / RFU ACY1 (11761880_at) / Fold change /veh ACY1 (11761880_at) / RFU 11764098_at / Fold change /veh 11764098_at / RFU SAMD14 (11745864_x_at) / Fold change /veh SAMD14 (11745864_x_at) / RFU NPB (11741838_a_at) / Fold change /veh NPB (11741838_a_at) / RFU TMPRSS6 (11731388_a_at) / Fold change /veh TMPRSS6 (11731388_a_at) / RFU KRTAP10-2 (11738614_at) / Fold change /veh KRTAP10-2 (11738614_at) / RFU ARHGAP8 /// PRR5-ARHGAP8 (11727945_x_at) / Fold change /veh ARHGAP8 /// PRR5-ARHGAP8 (11727945_x_at) / RFU KRTAP5-7 /// NADSYN1 (11734609_at) / Fold change /veh KRTAP5-7 /// NADSYN1 (11734609_at) / RFU RASL12 (11751679_a_at) / Fold change /veh RASL12 (11751679_a_at) / RFU CDKN2B (11736163_a_at) / Fold change /veh CDKN2B (11736163_a_at) / RFU PRF1 (11729649_at) / Fold change /veh PRF1 (11729649_at) / RFU, ZNF638 /// ZNF638-IT1 / Fold change vs veh, ZNF638 /// ZNF638-IT1 / RFU, PANK3 / Fold change vs veh, PANK3 / RFU, SH3YL1 / Fold change vs veh, SH3YL1 / RFU, ZEB2 / Fold change vs veh, ZEB2 / RFU, NRIP1 / Fold change vs veh, NRIP1 / RFU, PTTG1IP / Fold change vs veh, PTTG1IP / RFU, CAPN2 / Fold change vs veh, CAPN2 / RFU, MED14 / Fold change vs veh, MED14 / RFU, SNORA58 / Fold change vs veh, SNORA58 / RFU, C1orf63 / Fold change vs veh, C1orf63 / RFU, LRRFIP1 / Fold change vs veh, LRRFIP1 / RFU, NDUFAF7 / Fold change vs veh, NDUFAF7 / RFU, SLC12A2 / Fold change vs veh, SLC12A2 / RFU, IBTK / Fold change vs veh, IBTK / RFU, ESF1 / Fold change vs veh, ESF1 / Fold change vs veh, TMEM50B / RFU, TAOK1 / Fold change vs veh, TAOK1 / RFU, ACBD3 / Fold change vs veh, ACBD3 / RFU, TMA16 / Fold change vs veh, TMA16 / RFU, RWDD3 / Fold change vs veh, RWDD3 / RFU, BCAT1 / Fold change vs veh, BCAT1 / RFU, EDEM3 / Fold change vs veh, EDEM3 / RFU, TMEM33 / Fold change vs veh, TMEM33 / RFU, WDR75 / Fold change vs veh, WDR75 / RFU, AHCTF1 / Fold change vs veh, AHCTF1 / RFU, TFRC / Fold change vs veh, TFRC / RFU, ZDHHC17 / Fold change vs veh, ZDHHC17 / RFU, NOM1 / Fold change vs veh, NOM1 / RFU, ARL8B / Fold change vs veh, ARL8B / RFU, ZBTB11 / Fold change vs veh, ZBTB11 / RFU, TAMM41 / Fold change vs veh, TAMM41 / RFU, KIAA1704 /// LOC100996395 / Fold change vs veh, KIAA1704 /// LOC100996395 / RFU, ING1 / Fold change vs veh, ING1 / RFU, TRMT61B / Fold change vs veh, TRMT61B / RFU, FUBP3 / Fold change vs veh, FUBP3 / RFU, TP53 / Fold change vs veh, TP53 / RFU, TNKS2 / Fold change vs veh, TNKS2 / RFU, ZFP14 / Fold change vs veh, ZFP14 / RFU, ACTR2 / Fold change vs veh, ACTR2 / RFU, PPP3R1 / Fold change vs veh, PPP3R1 / RFU, PIK3R1 / Fold change vs veh, PIK3R1 / RFU, HNRNPA1 / Fold change vs veh, HNRNPA1 / RFU, RNF170 / Fold change vs veh, RNF170 / RFU, ZNF28 / Fold change vs veh, ZNF28 / RFU, RNGTT / Fold change vs veh, RNGTT / RFU, OGT / Fold change vs veh, OGT / RFU, BRD1 / Fold change vs veh, BRD1 / RFU, MARS / Fold change vs veh, MARS / RFU, ZNF655 / Fold change vs veh, ZNF655 / RFU, FAHD1 / Fold change vs veh, FAHD1 / RFU, BDP1 / Fold change vs veh, BDP1 / RFU, LRRCC1 / Fold change vs veh, LRRCC1 / RFU, ARID1A / Fold change vs veh, ARID1A / RFU, ZNF146 / Fold change vs veh, ZNF146 / RFU, ZNF330 / Fold change vs veh, ZNF330 / RFU, GPN3 / Fold change vs veh, GPN3 / RFU, C9orf123 / Fold change vs veh, C9orf123 / RFU, N4BP2L2 / Fold change vs veh, N4BP2L2 / RFU, ARFIP1 / Fold change vs veh, ARFIP1 / RFU, FAM179B / Fold change vs veh, FAM179B / RFU, BCL10 / Fold change vs veh, BCL10 / RFU, UHRF1BP1L / Fold change vs veh, UHRF1BP1L / RFU, BET1 / Fold change vs veh, BET1 / RFU, CNOT2 / Fold change vs veh, CNOT2 / RFU, ZNF268 / Fold change vs veh, ZNF268 / Fold change vs veh, ZNF507 / RFU, DGCR2 / Fold change vs veh, DGCR2 / RFU, WDSUB1 / Fold change vs veh, WDSUB1 / Fold change vs veh, HSP90B1 /// MIR3652 / RFU, ADSS / Fold change vs veh, ADSS / RFU, GK / Fold change vs veh, GK / RFU, ZNF148 / Fold change vs veh, ZNF148 / RFU, TAF9 / Fold change vs veh, TAF9 / RFU, SLC1A5 / Fold change vs veh, SLC1A5 / RFU, SLMO2 / Fold change vs veh, SLMO2 / RFU, ABCC4 / Fold change vs veh, ABCC4 / RFU, LOC101060439 /// RAP1B / Fold change vs veh, LOC101060439 /// RAP1B / RFU, RFX7 / Fold change vs veh, RFX7 / RFU, GTPBP10 / Fold change vs veh, GTPBP10 / RFU, CNEP1R1 / Fold change vs veh, CNEP1R1 / RFU, BIVM-ERCC5 /// ERCC5 / Fold change vs veh, BIVM-ERCC5 /// ERCC5 / RFU, ILF3 / Fold change vs veh, ILF3 / RFU 11762660_at / Fold change /veh 11762660_at / RFU VCAN (11757783_s_at) / Fold change /veh VCAN (11757783_s_at) / RFU DDX43 (11728927_at) / Fold change /veh DDX43 (11728927_at) / RFU KRT8 (11758188_x_at) / Fold change /veh KRT8 (11758188_x_at) / RFU NKD1 (11759106_at) / Fold change /veh NKD1 (11759106_at) / RFU SRD5A1 (11742802_a_at) / Fold change /veh SRD5A1 (11742802_a_at) / RFU TPSAB1 /// TPSB2 (11721975_s_at) / Fold change /veh TPSAB1 /// TPSB2 (11721975_s_at) / RFU GSTM3 (11746129_a_at) / Fold change /veh GSTM3 (11746129_a_at) / RFU IL23R (11737362_x_at) / Fold change /veh IL23R (11737362_x_at) / RFU TMEM51 (11727254_a_at) / Fold change /veh TMEM51 (11727254_a_at) / RFU PIWIL2 (11732686_x_at) / Fold change /veh PIWIL2 (11732686_x_at) / RFU ORM1 (11744905_x_at) / Fold change /veh ORM1 (11744905_x_at) / RFU CCDC152 (11743942_at) / Fold change /veh CCDC152 (11743942_at) / RFU ECM1 (11717891_a_at) / Fold change /veh ECM1 (11717891_a_at) / RFU IL23R (11748794_a_at) / Fold change /veh IL23R (11748794_a_at) / RFU TNFAIP8L3 (11732012_x_at) / Fold change /veh TNFAIP8L3 (11732012_x_at) / RFU MBOAT4 (11741988_at) / Fold change /veh MBOAT4 (11741988_at) / RFU 11764193_at / Fold change /veh 11764193_at / RFU TMEM53 (11763286_at) / Fold change /veh TMEM53 (11763286_at) / RFU MAGEB2 (11727129_at) / Fold change /veh MAGEB2 (11727129_at) / RFU TMEM200A (11744735_a_at) / Fold change /veh TMEM200A (11744735_a_at) / RFU CCDC152 (11751479_a_at) / Fold change /veh CCDC152 (11751479_a_at) / RFU FAM211A (11726209_a_at) / Fold change /veh FAM211A (11726209_a_at) / RFU RGS16 (11746705_a_at) / Fold change /veh RGS16 (11746705_a_at) / RFU VCAN (11755009_s_at) / Fold change /veh VCAN (11755009_s_at) / RFU RHOB (11743442_s_at) / Fold change /veh RHOB (11743442_s_at) / RFU RGS16 (11720943_a_at) / Fold change /veh RGS16 (11720943_a_at) / RFU RGS16 (11720944_at) / Fold change /veh RGS16 (11720944_at) / RFU, VPS4B / Fold change vs veh, VPS4B / RFU, CREB1 / Fold change vs veh, CREB1 / RFU, DNAJC13 / Fold change vs veh, DNAJC13 / RFU, GNAQ / Fold change vs veh, GNAQ / RFU, CDK5R1 / Fold change vs veh, CDK5R1 / RFU, ZRANB3 / Fold change vs veh, ZRANB3 / RFU, CUL4A / Fold change vs veh, CUL4A / RFU, CCNY / Fold change vs veh, CCNY / RFU, UFL1 / Fold change vs veh, UFL1 / RFU, COG3 / Fold change vs veh, COG3 / RFU, DIAPH2 / Fold change vs veh, DIAPH2 / RFU, SKA2 / Fold change vs veh, SKA2 / RFU, AFF3 / Fold change vs veh, AFF3 / RFU, LMF1 / Fold change vs veh, LMF1 / RFU, IPO11 / Fold change vs veh, IPO11 / RFU, DFFB / Fold change vs veh, DFFB / RFU, FOXP1 / Fold change vs veh, FOXP1 / RFU, CARD8 / Fold change vs veh, CARD8 / RFU, STRN3 / Fold change vs veh, STRN3 / RFU, ADK / Fold change vs veh, ADK / RFU, RASSF2 / Fold change vs veh, RASSF2 / RFU, WIPF1 / Fold change vs veh, WIPF1 / RFU, LARP1B / Fold change vs veh, LARP1B / RFU, RASA1 / Fold change vs veh, RASA1 / RFU, RB1 / Fold change vs veh, RB1 / RFU, PPFIA1 / Fold change vs veh, PPFIA1 / RFU, MAT2A / Fold change vs veh, MAT2A / RFU, CCT5 / Fold change vs veh, CCT5 / RFU, WDR92 / Fold change vs veh, WDR92 / RFU, CUX1 / Fold change vs veh, CUX1 / RFU, TTC7A / Fold change vs veh, TTC7A / RFU, TMEM135 / Fold change vs veh, TMEM135 / RFU, DEPTOR / Fold change vs veh, DEPTOR / RFU, CPM / Fold change vs veh, CPM / RFU, DNAJB6 / Fold change vs veh, DNAJB6 / RFU, CACNA2D3 / Fold change vs veh, CACNA2D3 / RFU, DTX4 / Fold change vs veh, DTX4 / RFU, TFCP2 / Fold change vs veh, TFCP2 / RFU, GMCL1 /// GMCL1P1 / Fold change vs veh, GMCL1 /// GMCL1P1 / RFU, AEBP2 / Fold change vs veh, AEBP2 / RFU, SNHG1 /// SNORD22 /// SNORD25 /// SNORD26 /// SNORD27 /// SNORD28 /// SNORD29 /// SNORD31 / Fold change vs veh, SNHG1 /// SNORD22 /// SNORD25 /// SNORD26 /// SNORD27 /// SNORD28 /// SNORD29 /// SNORD31 / Fold change (Aza/veh), C12orf56 (ProbeSet 11735607_a_at) / Fold change (ACY-1035/veh), C12orf56 (ProbeSet 11735607_a_at) / Fold change (Aza/veh), FGFR1OP (ProbeSet 11751329_s_at) / Fold change (ACY-1035/veh), FGFR1OP (ProbeSet 11751329_s_at) / Fold change (Aza/veh), VPS36 (ProbeSet 11739960_a_at) / Fold change (ACY-1035/veh), VPS36 (ProbeSet 11739960_a_at) / RFU SYPL1 (11715823_x_at) / Fold change /veh SYPL1 (11715823_x_at) / RFU IGFBP7 (11715501_s_at) / Fold change /veh IGFBP7 (11715501_s_at) / RFU REEP3 (11722064_at) / Fold change /veh REEP3 (11722064_at) / RFU IGLL1 (11728026_x_at) / Fold change /veh IGLL1 (11728026_x_at): dose or concentration left out as unconfirmed
Settings: ProbeSet 11747888_a_at; LIST D

Nc1ccc(-c2cccs2)cc1NC(=O)c1ccc2c(c1)cc(C1CC1)n2CCN1CCOCC1 [ACY-1035]
Fold change vs veh, SH3YL1: 0.93
